Values quoted from earlier work as cited in patent publication US20110070305A1, “SUSTAINED RELEASE PHARMACEUTICAL COMPOSITION CONTAINING MEBICAR” (ALPHARX INC., priority 2009, published 2011).

Tests used:
[1] = orally administered

## CN1C(=O)N(C)C2C1N(C)C(=O)N2C (stereo not drawn) [Mebicar]
[1]
  half-life: approximately 3 hours
Alcohol and most polar organic solvents
  solubility in alcohol and most polar organic solvents: soluble
water, ambient temperature
  solubility in water: about 50%
